Experimental data: patent EP4656642A1, “ESTROGEN RECEPTOR PROTEOLYSIS TARGETING CHIMERA COMPOUND AND USE THEREOF” (GAN & LEE PHARM CO., LTD, priority 2023, dated 2024)

How the values were obtained:
Type in all cases: cell-based
[1] = target: T1, ERα (Homo sapiens, UniProt P03372); assay: Degradation of ERα in T-47D cells (immunoblotting, 4 h); design: host or cells: T-47D
T1 sequence (P03372 1-595): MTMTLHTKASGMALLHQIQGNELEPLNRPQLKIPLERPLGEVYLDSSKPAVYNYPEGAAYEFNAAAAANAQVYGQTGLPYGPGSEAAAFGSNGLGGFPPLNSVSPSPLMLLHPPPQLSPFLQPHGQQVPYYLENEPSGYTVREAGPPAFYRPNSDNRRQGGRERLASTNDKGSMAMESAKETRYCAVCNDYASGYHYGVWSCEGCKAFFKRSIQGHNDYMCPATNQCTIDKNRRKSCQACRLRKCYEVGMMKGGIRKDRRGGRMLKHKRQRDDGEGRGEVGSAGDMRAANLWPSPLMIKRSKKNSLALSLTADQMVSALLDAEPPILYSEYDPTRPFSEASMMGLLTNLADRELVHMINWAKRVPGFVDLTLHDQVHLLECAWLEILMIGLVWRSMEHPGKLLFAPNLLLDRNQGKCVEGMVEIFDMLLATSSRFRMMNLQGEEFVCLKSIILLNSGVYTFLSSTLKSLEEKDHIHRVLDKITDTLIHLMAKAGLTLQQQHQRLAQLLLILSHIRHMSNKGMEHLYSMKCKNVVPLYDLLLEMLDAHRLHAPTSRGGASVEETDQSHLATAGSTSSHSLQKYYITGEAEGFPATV
Summary of the method: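 ERα protein levels were assessed by immunoblot of RIPA lysates (with protease inhibitor) after 4 h exposure at 37°C. Compound was added in DMSO to T-47D cells at final concentrations of 0.15-1000 nM.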

[2] = tested on: MCF-7 cells; assay: Inhibition of cell proliferation of MCF-7 cells (CCK-8, 9 days); conditions: treated for 9 days, CCK-8 kit (Table 6)
Summary of the method: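 Read-out was CCK-8 viability after 9-day continuous exposure (37°C, 5% CO2) of MCF-7 cells plated at 800/well in 10% FBS DMEM across several compound concentrations. Values are proliferation IC50s.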

[3] = tested on: T-47D cells; assay: Inhibition of cell proliferation in T-47D cells (CCK-8, 6 days); conditions: 6 days of treatment, Table 3
Summary of the method: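 Viability read-out was CCK-8 after 6 days of compound treatment (37 °C, 5% CO2) across graded concentrations. Cells were T-47D seeded at 3,000 per well in 1640 medium plus 10% FBS. IC50 was calculated against proliferation.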

[4] = target: T1, ERα; assay: Degradation of ERα in MCF-7 cells (immunoblotting, 4 h)
Summary of the method: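 Degradation rate reflects ERα band intensity, corrected to an internal reference protein, relative to control. Values come from Western blotting of lysates from MCF-7 cells exposed 4 h at 37°C to compounds at final concentrations of 0.15-1000nM.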

| Degradation rate (%) of ERα in T-47D cells ([1]; 1nM compound) | Degradation rate (%) of ERα in T-47D cells ([1]; 10nM compound) | IC50 [2] | IC50 [3] | Degradation rate (%) of ERα in MCF-7 cells ([4]; 1nM compound) | Degradation rate (%) of ERα in MCF-7 cells ([4]; 10nM compound) | Structure (SMILES) |
| --- | --- | --- | --- | --- | --- | --- |
| 26% | 71% | 10.5 nM | 1.85 nM | 31% | 69% | O=C1CCC(N2Cc3ccc4c(c3C2=O)OCC42CCN(C3CCN(C(=O)C4(F)CCN(c5ccc([C@@H]6c7ccc(O)cc7CC[C@@H]6c6ccccc6)cc5)CC4)CC3F)CC2)C(=O)N1 (stereo partly drawn) [A93] |
| 54% | 80% | 45 nM | 2.74 nM | 22% | 48% | O=C1CCC(N2Cc3ccc4c(c3C2=O)OCC42CCN(C3CCN(C(=O)C4CCN(c5ccc([C@@H]6c7ccc(O)cc7CC[C@@H]6c6ccccc6)cc5)CC4)CC3)CC2)C(=O)N1 (stereo partly drawn) [A94] |
| 52% | 68% | 201 nM | 1.49 nM | 42% | 48% | CCC(C(=O)N1CCC2(CC1)COc1c2ccc2c1CN(C1CCC(=O)NC1=O)C2=O)N1CCC2(CCN(c3ccc([C@@H]4c5ccc(O)cc5CC[C@@H]4c4ccccc4)cc3)CC2)C1 (stereo partly drawn) [A95] |
| 31% | 78% | 11 nM | 3.38 nM | 40% | 66% | C[C@@H]1CN(C(=O)C2(F)CCN(c3ccc([C@@H]4c5ccc(O)cc5CC[C@@H]4c4ccccc4)cc3)CC2)CCC1N1CCC2(CC1)COc1c2ccc2c1CN(C1CCC(=O)NC1=O)C2=O (stereo partly drawn) [A96] |
| 45% | 78% | 217 nM | 2.33 nM | 50% | 75% | C[C@H]1CN(C(=O)C2(F)CCN(c3ccc([C@@H]4c5ccc(O)cc5CC[C@@H]4c4ccccc4)cc3)CC2)CCC1N1CCC2(CC1)COc1c2ccc2c1CN(C1CCC(=O)NC1=O)C2=O (stereo partly drawn) [A97] |
| 51% | 83% | 5.12 nM | 1.19 nM | 48% | 90% | O=C1CCC(N2Cc3c(ccc4c3OCC43CCN(C4CCN(C5CC6(CCN(c7ccc([C@@H]8c9ccc(O)cc9CC[C@@H]8c8ccccc8)cc7)CC6)C5)[C@@H](C(=O)N5CC(F)(F)C5)C4)CC3)C2=O)C(=O)N1 (stereo partly drawn) [A98] |
| 51% | 82% | 4.19 nM | 2.07 nM | 35% | 77% | O=C1CCC(N2Cc3c(ccc4c3OCC43CCN(C4CCN(C5CC6(CCN(c7ccc([C@@H]8c9ccc(O)cc9CC[C@@H]8c8ccccc8)cc7)CC6)C5)[C@@H](C(=O)N5CCC(F)(F)CC5)C4)CC3)C2=O)C(=O)N1 (stereo partly drawn) [A99] |
| 77% | 84% | 2.27 nM | 0.84 nM | 65% | 73% | O=C1CCC(N2Cc3c(ccc4c3OCC43CCN(CC4CCN(C(=O)C5CCN(c6ccc([C@@H]7c8ccc(O)cc8CC[C@@H]7c7ccccc7)cc6)CC5)CC4)CC3)C2=O)C(=O)N1 (stereo partly drawn) [A100] |
| 44% | 45% | 850 nM | 0.91 nM | 52% | 61% | O=C1CCC(N2Cc3c(ccc4c3OCC43CCN(C(=O)C4CCC(N5CCC(C#Cc6ccc([C@@H]7c8ccc(O)cc8CC[C@@H]7c7ccccc7)cc6)CC5)CC4)CC3)C2=O)C(=O)N1 (stereo partly drawn) [A101] |
| 16% | 51% | 107 nM | 20.2 nM | 36% | 73% | O=C1CCC(N2Cc3c(ccc4c3OCC43CCN(CC4CCN(CC5CCN(c6ccc([C@@H]7c8ccc(O)cc8CC[C@@H]7c7ccccc7)cc6)CC5)CC4)CC3)C2=O)C(=O)N1 (stereo partly drawn) [A102] |
| 29% | 68% | 13.6 nM | 2.99 nM | 37% | 70% | C[C@@H]1Cc2c([nH]c3ccccc23)[C@@H](c2c(F)cc(N3CCC4(CCC(N5CCC6(CC5)COc5c6ccc6c5CN(C5CCC(=O)NC5=O)C6=O)CC4)CC3)cc2F)N1CC(F)F (stereo partly drawn) [A103] |
| 35% | 72% | 30.3 nM | 17.1 nM | 15% | 70% | C[C@@H]1Cc2c([nH]c3ccccc23)[C@@H](c2c(F)cc(N3CC4(CCC(N5CCC6(CC5)COc5c6ccc6c5CN(C5CCC(=O)NC5=O)C6=O)CC4)C3)cc2F)N1CC(F)F (stereo partly drawn) [A104] |
| 38% | 73% | 26600 nM | 1.3 nM | 7% | 43% | O=C1CCC(N2Cc3c(ccc4c3OCC43CCN(CC4(F)CCN(C(=O)C5CCN(c6ccc([C@@H]7c8ccc(O)cc8CC[C@@H]7c7ccccc7)cc6)CC5)CC4)CC3)C2=O)C(=O)N1 (stereo partly drawn) [A105] |
| 43% | 74% | 190 nM | 1.2 nM | 19% | 62% | C[C@@H]1Cc2c([nH]c3ccccc23)[C@@H](c2c(F)cc(N3CCC(C(=O)N4CCC(N5CCC6(CC5)COc5c6ccc6c5CN(C5CCC(=O)NC5=O)C6=O)CC4)CC3)cc2F)N1CC(F)F (stereo partly drawn) [A106] |
| 41% | 73% | 7390 nM | 1.8 nM | 22% | 46% | N#CC1(CN2CCC3(CC2)COc2c3ccc3c2CN(C2CCC(=O)NC2=O)C3=O)CCN(C(=O)C2CCN(c3ccc([C@@H]4c5ccc(O)cc5CC[C@@H]4c4ccccc4)cc3)CC2)CC1 (stereo partly drawn) [A108] |
| 31% | 75% | 42.8 nM | 2.93 nM | 10% | 54% | CC1(CN2CCC3(CC2)COc2c3ccc3c2CN(C2CCC(=O)NC2=O)C3=O)CCN(C(=O)C2CCN(c3ccc([C@@H]4c5ccc(O)cc5CC[C@@H]4c4ccccc4)cc3)CC2)CC1 (stereo partly drawn) [A109] |
| 49% | 82% | 93.6 nM | 1.2 nM | 39% | 74% | C[C@@H]1Cc2c([nH]c3ccccc23)[C@@H](c2c(F)cc(N3CCC4(CCN(CC(=O)N5CCC6(CC5)COc5c6ccc6c5CN(C5CCC(=O)NC5=O)C6=O)C4)CC3)cc2F)N1CC(F)F (stereo partly drawn) [A111] |
